Results from article PMC9573943, “Contribution of the 12–17 hydrophobic region of islet amyloid polypeptide in self-assembly and cytotoxicity” (Frontiers in Molecular Biosciences, 2022).
Bridge positions count the residues as written; N and C are the ends. Ends that are not written are not given here.

Columns and labels:
[1] = Kinetics of amyloid formation monitored by ThT fluorescence; format: physicochemical; details: 25 μM peptide, 40 μM ThT, 20 mM Tris-HCl pH 7.4, 25°C, no agitation, nonbinding surface 96-well plate, read every 10 min, lag time = T50 - 2/k, mean ± S.D. of at least six assays
Procedure: Aggregation mixtures were prepared by dissolving the lyophilized peptide at a concentration of 50 μM in 20 mM Tris-HCl, pH 7.4. Assays were performed at 25°C without stirring in sealed black-wall clear-bottom 96-well nonbinding surface plates with 100 μL/well. Final peptide concentrations were 12.5 and 25 μM, and thioflavin T (ThT) concentration was fixed at 40 μM. Fluorescence was measured every 10 min (excitation: 440 nm, emission: 485 nm) and data from triplicate wells were averaged, corrected by subtracting the blank control, and plotted as ThT fluorescence vs. time. Data were normalized with maximum ThT fluorescence intensity obtained for unmodified IAPP. Data were fitted to a sigmoidal Boltzmann model: Y=Yo+(Ymax−Yo)/1+e^−(T−T50)/ K where T 50 is the time required to reach half of the maximum fluorescence intensity, k is the apparent first-order constant, and Y max and Y 0 are the maximum and initial ThT fluorescence values. Lag time corresponds to T50 - 2/k. Data of at least six assays performed with different peptide lots were averaged and expressed as the mean ± S.D. Statistical analysis was performed using Student’s t test, and statistically significant difference between IAPP and analogs was established at (*) p < 0.05; (**) p < 0.005; (***) p < 0.0005.

[2] = Peptide self-assembly under fully quiescent conditions (CD, ThT and ANS fluorescence, TEM, AFM); format: physicochemical; details: 50 μM peptide; for Assemblies observed by TEM after 48 h incubation: negative stain TEM; for ThT fluorescence of incubated peptide, in words: diluted to 25 μM with 40 μM ThT; for Incubation time at which the random coil to β-sheet conformational transition is seen (far-UV CD) / Secondary conformation / conformational transition over incubation (far-UV CD), in words: fully quiescent; for Incubation time at which the random coil to β-sheet conformational transition is seen (far-UV CD): microtubes, diluted to 25 μM for CD; for Secondary conformation / conformational transition over incubation (far-UV CD), in words: up to 7 days
Procedure: Solutions were prepared by dissolving the peptide at a concentration of 50 μM in 20 mM Tris-HCl, pH 7.4, and were incubated at room temperature without agitation in 1.5 ml Eppendorf microtubes. For IAPP12-17, the lyophilized peptide was dissolved in 20 mM acetate pH 6.5 in the presence of 3% DMSO, or HFIP, at a final concentration of 500 μM and the peptide solution was incubated at 37 °C under constant rotational agitation.
At the indicating time of incubation, peptide solutions were diluted to 25 μM in presence of 40 μM ThT, or 25 μM 8-anilino-1-naphthalenesulfonic acid (ANS). Fluorescence was measured in 10-mm pathlength microcells using a PTI QuantaMaster spectrofluorometer. For ThT, excitation was set at 440 nm, and the emission spectrum from 450 to 550 nm was recorded. For ANS, the excitation was set at 355 nm, and the emission scan was recorded from 385 to 585 nm.
After incubation, peptide solutions were diluted in water to 25 μM and incorporated into a 2-mm path length quartz cell. For IAPP12-17, the solution was diluted to 150 μM. Far-UV CD spectra were recorded from 190 to 260 nm using a Jasco J-815 CD spectropolarimeter at 25°C. The wavelength step was set at 0.5 nm with an average time of 10 s per scan at each wavelength. Spectra were background-subtracted with buffer solution. Raw data were converted to mean residue ellipticity (MRE): MRE=Mean residue weight (g/mol)X CD signal (deg)/10 X pathlength (cm) X peptide concentration (g/mL)
After incubation, peptide solutions were diluted to 10 μM, or 100 μΜ for IAPP12-17, before being applied on glow-discharged carbon films on 300-mesh copper grids. Samples were adsorbed and negatively stained with 1.5% uranyl formate for 45 s. Images were recorded using a FEI Tecnai G2 Spirit Twin microscope operating at 120 kV and equipped with a Gatan Ultrascan scan 4,000 4k × 4k CCD camera system.
After incubation, peptide solutions were diluted in 1% acetic acid to a concentration of 7.5 μΜ. […] Images were recorded using Veeco/Bruker multimode AFM instrument using ScanAsyst-air mode with a silicon tip (2–12 nm tip radius, 0.4 N/m force) on a nitride lever. Images were taken at 0.977 Hz and 512 scan/min.

[3] = Lipid membrane leakage (calcein-loaded LUVs); details: 25 μM peptide, 500 μM phospholipids; for Maximum membrane leakage (calcein fluorescence, % of that with Triton X-100): LUVs DOPC:DOPG 9:1, 20 mM Tris-HCl, 150 mM NaCl, pH 7.4, read every 10 min over 24 h, IAPP value reached after 10 h, at least four assays
Procedure: Large unilamellar vesicles (LUVs) were assembled from 1,2-Dioleoyl-sn-glycero-3-phosphocholine (DOPC) and 2-dioleoyl-sn-glycero-3-phospho-(1′-rac-glycerol) (DOPG) at a 9:1 M ratio (DOPC:DOPG). Lipids were solubilized in 100% chloroform, which was then evaporated. […] The lipid mixture was freeze-thawed five times before being extruded through a 100 nm membrane for 20 cycles. Nonencapsulated calcein was removed by gel filtration using a Sephadex G25 fine resin and 20 mM Tris-HCl, 150 mM NaCl, pH 7.4, as elution buffer. Final lipid concentration was determined by a colorimetric assay ([Babych et al., 2021]). Lyophilized peptides were solubilized in 20 mM Tris-HCl, 150 mM NaCl, pH 7.4, at 50 μM prior to dilution into calcein-LUVs, to reach 25 μM peptide and 500 μM phospholipids. Fluorescence was monitored in sealed black-wall, clear-bottom 96-well non-binding surface plates with 100 μL/well. […] 100% leakage (Fmax) was determined with 0.2% Triton X-100 and LUV leakage was reported using:
Membrane leakage (%) = (F−F baseline)/(F max−F baseline)
Data of at least four assays with different peptide lots were averaged and expressed as the mean ± S.D. Statistical analysis was performed using Student’s t test, and statistically significant difference was established at (*) p < 0.05; (**) p < 0.005; (***) p < 0.0005.

[4] = test system: INS-1E cells; assay: Cell viability by resazurin reduction; format: cell-based, Rat; details: 24 h, at least five assays; for Cell viability: 50 μM freshly dissolved peptide, relative to vehicle-treated cells; for Cytotoxicity compared with unmodified IAPP, in words: freshly dissolved peptide up to 50 μM
Procedure: (§1) Rat INS-1E cells were cultured in treated black-wall clear-bottom 96-well plates at a density of 25,000 cell/well in RPMI-1640 medium supplemented with 10% FBS, 2 mM L-glutamine, 100 U/ml penicillin, 100 μg/ml streptomycin, 10 mM HEPES, 1 mM sodium pyruvate and 50 μM β-mercaptoethanol. After 48 h of incubation at 37°C in 5% CO2, cells were treated with 50 μL of peptide freshly dissolved in 20 mM Tris-HCl, pH 7.4. […] Cell viability (%) was calculated from the ratio of the fluorescence of the treated cells to the vehicle-treated cells. Data of at least five assays performed with different peptide lots were averaged and expressed as the mean ± S.D. Statistical analysis was performed using Student’s t test, and statistically significant difference was established at (*) p < 0.05; (**) p < 0.005; (***) p < 0.0005. For Live/Dead viability assay, cells were plated in 12-well plates at density of 250,000 cell/well for 48 h before treatment with 25 μM peptide.

[5] = test system: INS-1E cells; assay: Live/Dead viability assay (calcein-AM / ethidium homodimer-1, fluorescence microscopy); format: cell-based, Rat; details: 25 μM freshly solubilized peptide, 24 h, calcein-AM (green, live) and ethidium homodimer-1 (red, dead)
Procedure: as §1

[6] = 20 mM Tris-HCl pH 7.4, quiescent
[7] = 20 mM Tris-HCl pH 7.4, room temperature

Compound	Lag time of amyloid formation [1] [h]	Assemblies observed by TEM after 48 h incubation [2, 6]	ThT fluorescence of incubated peptide, in words [2, 6]	Incubation time at which the random coil to β-sheet conformational transition is seen (far-UV CD) [2, 7] [h]	Maximum membrane leakage (calcein fluorescence, % of that with Triton X-100) [3] [%]	Incubation time at which membrane leakage starts ([3]; LUVs DOPC:DOPG 9:1, pH 7.4) [h]	Cell viability [4]	Cytotoxicity compared with unmodified IAPP, in words [4]	Cell death in Live/Dead assay, in words [5]	ANS fluorescence of incubated peptide, in words ([2]; 20 mM Tris-HCl pH 7.4, quiescent, diluted to 25 μM with 25 μM ANS)	Secondary conformation / conformational transition over incubation (far-UV CD), in words [2, 7]	Assemblies observed by AFM after 24 h incubation ([2]; 20 mM Tris-HCl pH 7.4, room temperature, no agitation, 24 h)
CC[C@H](C)[C@H](NC(=O)[C@H](C)NC(=O)CNC(=O)[C@H](Cc1ccccc1)NC(=O)[C@H](CC(N)=O)NC(=O)[C@H](CC(N)=O)NC(=O)[C@H](CO)NC(=O)[C@H](CO)NC(=O)[C@H](Cc1c[nH]cn1)NC(=O)[C@@H](NC(=O)[C@H](CC(C)C)NC(=O)[C@H](Cc1ccccc1)NC(=O)[C@H](CC(N)=O)NC(=O)[C@H](C)NC(=O)[C@H](CC(C)C)NC(=O)[C@H](CCCNC(=N)N)NC(=O)[C@H](CCC(N)=O)NC(=O)[C@@H](NC(=O)[C@H](C)NC(=O)[C@@H]1CSSC[C@H](NC(=O)[C@@H](N)CCCCN)C(=O)N[C@@H](CC(N)=O)C(=O)N[C@@H]([C@@H](C)O)C(=O)N[C@@H](C)C(=O)N[C@@H]([C@@H](C)O)C(=O)N1)[C@@H](C)O)C(C)C)C(=O)N[C@@H](CC(C)C)C(=O)N[C@@H](CO)C(=O)N[C@@H](CO)C(=O)N[C@H](C(=O)N[C@@H](CC(N)=O)C(=O)N[C@H](C(=O)NCC(=O)N[C@@H](CO)C(=O)N[C@@H](CC(N)=O)C(=O)N[C@H](C(=O)N[C@@H](Cc1ccc(O)cc1)C(N)=O)[C@@H](C)O)C(C)C)[C@@H](C)O [IAPP, islet amyloid polypeptide]	3.9 ± 1.2	prototypical fibrils	increase of ThT and ANS fluorescence	24	17	5	less than 10%	concentration-dependent decrease of metabolic activity	sharp increase in the number of red cells and a decrease of green cells			
CC[C@H](C)[C@H](NC(=O)[C@H](C)NC(=O)CNC(=O)[C@H](Cc1ccccc1)NC(=O)[C@H](CC(N)=O)NC(=O)[C@H](CC(N)=O)NC(=O)[C@H](CO)NC(=O)[C@H](CO)NC(=O)[C@H](Cc1c[nH]cn1)NC(=O)[C@@H](NC(=O)[C@H](CC(C)C)NC(=O)[C@H](Cc1ccccc1)NC(=O)[C@H](C)NC(=O)[C@H](C)NC(=O)[C@H](CC(C)C)NC(=O)[C@H](CCCNC(=N)N)NC(=O)[C@H](CCC(N)=O)NC(=O)[C@@H](NC(=O)[C@H](C)NC(=O)[C@@H]1CSSC[C@H](NC(=O)[C@@H](N)CCCCN)C(=O)N[C@@H](CC(N)=O)C(=O)N[C@@H]([C@@H](C)O)C(=O)N[C@@H](C)C(=O)N[C@@H]([C@@H](C)O)C(=O)N1)[C@@H](C)O)C(C)C)C(=O)N[C@@H](CC(C)C)C(=O)N[C@@H](CO)C(=O)N[C@@H](CO)C(=O)N[C@H](C(=O)N[C@@H](CC(N)=O)C(=O)N[C@H](C(=O)NCC(=O)N[C@@H](CO)C(=O)N[C@@H](CC(N)=O)C(=O)N[C@H](C(=O)N[C@@H](Cc1ccc(O)cc1)C(N)=O)[C@@H](C)O)C(C)C)[C@@H](C)O [N14A]		dense network of thin fibrils	low ThT fluorescence	48	50		50%	reduced IAPP toxicity	decreased toxicity compared to unmodified IAPP	high ANS signal	helical-like conformation with two minima at 206 and 222 nm between 2 and 24 h incubation	only poorly defined fibrils
V17A: full-length IAPP with Val17 substituted by Ala (KCNTATCATQRLANFLAHSSNNFGAILSSTNVGSNTY; disulfide 2-7; ends not checked; UniProt P10997 34-70, looked up, variant V17A)		short and poorly defined fibrils	low ThT and ANS binding properties		34			reduced IAPP toxicity	decreased toxicity compared to unmodified IAPP		delayed the conformational transition	
